This note sets out measurements from patent US10196425B2, “Peptide compositions” (RHYTHM PHARMACEUTICALS, INC., priority 2013, dated 2019).

Format in all cases: cell-based
Test [1] has as its target MC1R (Homo sapiens, UniProt Q01726). The test can be described thus: cAMP assay (β-galactosidase reporter, cAMP Hunter), MC1R. The following applies: for Ratios of EC50 values MC ¼: EC50(MC1R)/EC50(MC4R). The text has this: (§1) cAMP Accumulation Measurement Via a β-Galactosidase (β-Gal) Reporter System
(§2) A chemiluminescence readout system that uses an enzyme fragment complementation (EFC) system with β-galactosidase (β-Gal) as the functional reporter system was used. This assay system for various melanocortin receptor systems is commercially available (cAMP Hunter GPCR assay system, Discoverx Corp, Fremont, Calif.). This assay utilizes the β-Gal enzyme that is split into two complementary portions; EA for Enzyme Acceptor and ED for Enzyme Donor. In the assay, the ED portion fused to cAMP is made to compete with cAMP generated by cells for binding to a cAMP-specific antibody. The EA is then added to form active β-Gal with any unbound ED-cAMP.
(§3) Briefly, 10000 cells per well are plated overnight and each well (cells incubated with 10 μl assay buffer) is then incubated with 4× serial concentration of the test compound in the cell assay buffer (5 μL) and cAMP antibody reagent (5 μL) for 30 min at 37° C. The cell lysis buffer (20 μL) containing ED-cAMP coupled enzyme fragment and the reporter substrate (Emerald II-Galacton Star, 5:1) is then added and incubated for 60 min at room temperature. Next, 20 μL of EA β-Gal fragment reagent is added.
(Changes in cAMP serve as a functional read-out for many G protein-coupled receptors.)

Test [2] deals with MC3R (Homo sapiens, UniProt P41968). The test can be described thus: cAMP assay (β-galactosidase reporter, cAMP Hunter), MC3R. The following applies: for Ratios of EC50 values MC ¾: EC50(MC3R)/EC50(MC4R).
Sequence of MC3R (P41968 whole entry): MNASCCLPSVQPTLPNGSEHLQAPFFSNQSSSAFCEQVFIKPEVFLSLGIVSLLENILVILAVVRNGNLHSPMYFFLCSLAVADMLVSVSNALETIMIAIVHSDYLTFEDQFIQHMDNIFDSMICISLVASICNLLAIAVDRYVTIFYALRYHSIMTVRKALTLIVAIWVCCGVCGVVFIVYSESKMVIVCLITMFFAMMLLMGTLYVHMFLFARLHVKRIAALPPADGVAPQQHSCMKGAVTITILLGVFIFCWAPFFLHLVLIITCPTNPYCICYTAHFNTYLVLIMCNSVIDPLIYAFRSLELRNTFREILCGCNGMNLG
Source text: as §1, §2, §3

Test [3] has as its target MC4R (Homo sapiens, UniProt P32245). The test can be described thus: cAMP assay (β-galactosidase reporter, cAMP Hunter), MC4R.
Source text: as §1, §2, §3

The target of test [4] is MC5R (Homo sapiens, UniProt P33032). The test can be described thus: cAMP assay (β-galactosidase reporter, cAMP Hunter), MC5R. As to conditions: for Ratios of EC50 values MC 5/4: EC50(MC5R)/EC50(MC4R).
Sequence of MC5R (P33032 whole entry): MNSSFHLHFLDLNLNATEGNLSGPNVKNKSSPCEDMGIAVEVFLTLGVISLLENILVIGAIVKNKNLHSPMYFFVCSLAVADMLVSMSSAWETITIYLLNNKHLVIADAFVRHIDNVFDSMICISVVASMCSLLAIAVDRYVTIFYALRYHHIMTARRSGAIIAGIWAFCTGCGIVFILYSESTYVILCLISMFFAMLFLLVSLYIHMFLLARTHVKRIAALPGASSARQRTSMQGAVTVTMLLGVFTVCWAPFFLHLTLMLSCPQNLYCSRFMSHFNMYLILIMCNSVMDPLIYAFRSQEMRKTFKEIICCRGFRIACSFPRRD
Source text: as §1, §2, §3

Where [5] appears, read: agonist cAMP stimulation, read-out: cAMP Assay (EC-50) MC1R.
[6] abbreviates: agonist cAMP stimulation, read-out: cAMP Assay (EC-50) MC3R.
Setting [7] is: agonist cAMP stimulation, read-out: cAMP Assay (EC-50) MC4R.
Setting [8] is: agonist cAMP stimulation, read-out: cAMP Assay (EC-50) MC5R.

Like-named read-outs stand apart in the source and are kept apart here. Bridge positions count the residues as written; N and C are the ends. Square brackets hold non-standard residues; d marks the D form. Peptide text beside a SMILES is read from it. Pen = CC(C)(S)[C@H](N)C(=O)O; hCys = N[C@@H](CCS)C(=O)O

Sequence of MC4R (P32245 whole entry): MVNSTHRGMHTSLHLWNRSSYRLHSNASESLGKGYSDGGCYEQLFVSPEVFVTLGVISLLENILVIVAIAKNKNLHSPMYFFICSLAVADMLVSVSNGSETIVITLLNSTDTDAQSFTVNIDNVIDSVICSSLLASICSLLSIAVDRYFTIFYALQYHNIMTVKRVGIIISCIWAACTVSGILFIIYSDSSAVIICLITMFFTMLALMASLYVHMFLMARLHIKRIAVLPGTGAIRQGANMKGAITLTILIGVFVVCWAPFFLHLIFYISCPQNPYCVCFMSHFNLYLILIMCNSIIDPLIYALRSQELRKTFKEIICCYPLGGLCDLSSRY
Sequence of MC1R (Q01726 whole entry, the tested form may be a part): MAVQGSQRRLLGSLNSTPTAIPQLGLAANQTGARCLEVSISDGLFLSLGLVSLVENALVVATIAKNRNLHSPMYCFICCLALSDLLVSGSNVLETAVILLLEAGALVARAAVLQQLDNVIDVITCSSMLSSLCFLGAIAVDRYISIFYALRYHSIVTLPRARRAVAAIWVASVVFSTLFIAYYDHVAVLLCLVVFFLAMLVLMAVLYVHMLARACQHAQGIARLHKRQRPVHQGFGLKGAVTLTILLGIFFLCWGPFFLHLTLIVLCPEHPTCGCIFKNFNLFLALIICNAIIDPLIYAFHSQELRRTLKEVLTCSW

On to `CC(=O)N[C@@H](CCCNC(=N)N)C(=O)N[C@H]1CCSSC[C@@H](C(N)=O)NC(=O)[C@H](Cc2c[nH]c3ccccc23)NC(=O)[C@H](CCCNC(=N)N)NC(=O)[C@@H](Cc2ccccc2)NC(=O)[C@H](C)NC1=O` [Compound 15, Ac-Arg-cyclo[hCys-Ala-D-Phe-Arg-Trp-Cys]-NH2] (Ac-R[hCys]A[dF]RWC-NH2; disulfide 2-7), for which the “Ratios of EC50 values MC ¼” value in test [1] amounted to 15. In addition, the EC50 in test [1] (setting [5]) worked out at 0.004 µM; in test [2] (setting [6]) it was 0.001 µM; in test [3] (setting [7]) it was 0.00026 µM; in test [4] (setting [8]) it was 0.042 µM. The “Ratios of EC50 values MC ¾” value in test [2] was determined as 3.8. In addition, in test [4], the “Ratios of EC50 values MC 5/4” value is 161.

Turning to `CC(=O)N[C@@H](CCCNC(=N)N)C(=O)N[C@H]1CCSSC[C@@H](C(N)=O)NC(=O)[C@H](Cc2c[nH]c3ccccc23)NC(=O)[C@H](CCCNC(=N)N)NC(=O)[C@@H](Cc2ccccc2)NC(=O)[C@@H](C)NC1=O` [Compound 16, Ac-Arg-cyclo[hCys-D-Ala-D-Phe-Arg-Trp-Cys]-NH2] (Ac-R[hCys][dA][dF]RWC-NH2; disulfide 2-7), the “Ratios of EC50 values MC ¼” value in test [1] was found to be 120. In addition, the EC50 in test [1] (setting [5]) was 0.888 µM; in test [2] (setting [6]), 3.16 µM; in test [3] (setting [7]) it was 0.0075 µM; in test [4] (setting [8]) it was > 10 µM. The “Ratios of EC50 values MC ¾” value in test [2] amounted to 420. For the same compound, the “Ratios of EC50 values MC 5/4” value in test [4] is listed as >1338.

On to `CC(=O)N[C@@H](CCCNC(=N)N)C(=O)N[C@H]1CCSSC(C)(C)[C@@H](C(N)=O)NC(=O)[C@H](Cc2c[nH]c3ccccc23)NC(=O)[C@H](CCCNC(=N)N)NC(=O)[C@@H](Cc2ccccc2)NC(=O)[C@@H](C)NC1=O` [Compound 17, Ac-Arg-cyclo[hCys-D-Ala-D-Phe-Arg-Trp-Pen]-NH2] (Ac-R[hCys][dA][dF]RW[Pen]-NH2; disulfide 2-7), for which, in test [1], the “Ratios of EC50 values MC ¼” value was 15. For the same compound, the EC50 in test [1] (setting [5]) stood at 0.195 µM; in test [2] (setting [6]), 0.233 µM; in test [3] (setting [7]) it was 0.0137 µM; in test [4] (setting [8]), 2.18 µM. In addition, the “Ratios of EC50 values MC ¾” value in test [2] came to 17. For the same compound, the “Ratios of EC50 values MC 5/4” value in test [4] was determined as 159.

As to `CC(=O)N[C@@H](CCC(=O)O)C(=O)N[C@H]1CSSC[C@@H](C(N)=O)NC(=O)[C@H](Cc2c[nH]c3ccccc23)NC(=O)[C@H](CCCNC(=N)N)NC(=O)[C@@H](Cc2ccccc2)NC(=O)[C@H](Cc2c[nH]cn2)NC(=O)[C@H](C)NC1=O` [Compound 22, Ac-Glu-cyclo[Cys-Ala-His-D-Phe-Arg-Trp-Cys]-NH2] (Ac-ECAH[dF]RWC-NH2; disulfide 2-8), in test [1], the EC50 amounted to 0.0017 µM and the “Ratios of EC50 values MC ¼” value is >3. Moreover, in test [2], the EC50 amounted to 0.0099 µM and the “Ratios of EC50 values MC ¾” value is listed as >20. For the same compound, in test [3], the EC50 is < 0.0005 µM. Moreover, in test [4], the EC50 came out at 1.28 µM and the “Ratios of EC50 values MC 5/4” value is listed as >2563.
